{"source": "patent US20210349099A1", "about": "“CANCER BIOMARKERS AND METHODS OF USE THEREOF” (X4 Pharmaceuticals, Inc., priority 2017, published 2021)", "key": {"melanoma biopsy samples": {"tested_on": "melanoma biopsy samples", "test": "VISTA panel staining of melanoma biopsies (CD163, CD206, VISTA, COX-2, CD3, B7H3)", "type": "in vivo, human", "excerpt": "Biopsy samples were obtained at baseline (top row) and at the end of […]-001 monotherapy (bottom row). […] The right column contains higher magnification views of the boxed regions in the center panel."}, "in vivo": {"test": "in vivo", "procedure": "In certain embodiments, the dosage composition may be provided twice a day in divided dosage, approximately 12 hours apart. In other embodiments, the dosage composition may be provided once daily. […] Dosage for oral administration may be from about 100 mg to about 1200 mg once or twice per day."}, "[1]": {"tested_on": "metastatic melanoma human tumor sample", "test": "Single-marker IHC of melanoma patient tumor samples (HALO)", "type": "in vivo", "procedure": "Single-marker IHC (CD8 and granzyme B) and multiplex IHC staining were analyzed using HALO™ spatial analysis tools, and the entire tumor area of each specimen was scored. (See Tunstall, “Quantifying Immune Cell Distribution in the Tumor Microenvironment Using HALO™ Spatial Analysis Tools,” Application Note, July […], (Indica Labs), accessed Nov. 1, 2017, on https://thepathologist.com/fileadmin/issues/App_Notes/0016-010-halo-app-note.pdf). See also Sherry et al., “Utilizing multiplex chromogenic IHC and digital image analysis to evaluate immune cell content and spatial distribution within NSCLC tumor tissue” Cancer Research (2017) 77(13) Supp: Abstract 2937. CD8 was measured using a mouse monoclonal antibody (DAKO catalog #M7103, lot #20029542). A Leica Bond RX Autostainer was used following standard protocols. For granzyme B, a mouse monoclonal antibody was used (DAKO #M7235). A Leica Bond RX Autostainer was used following standard protocols.\nSingle-marker IHC was also used to measure CD3, FoxP3, and Ki67. For CD3, a rabbit polyclonal antibody was used (DAKO catalog #A0452, lot #20020069). A Leica Bond RX Autostainer was used following standard protocols. For FoxP3, a mouse monoclonal antibody was used (Abcam catalog #ab20034, lot #GR251424-1). A Leica Bond RX Autostainer was used following standard protocols. […]"}, "melanoma tumor interface": {"tested_on": "melanoma tumor interface", "test": "Multiplex IHC and HALO count of CD8+ cells at the tumor interface", "type": "in vivo, human", "procedure": "CD8-labeled cells within […] of the inside or outside of the tumor boundary with normal tissue were counted. The number of CD8^+ cells/mm^2 was plotted against distance from the boundary in […] bands."}, "Solubility of X4P-001": {"test": "Solubility of X4P-001", "type": "physicochemical"}, "[2]": {"details": "end of X4P-001 monotherapy vs baseline"}}}
{"smiles": "NCCCCN(Cc1nc2ccccc2[nH]1)[C@H]1CCCc2cccnc21", "note": "[X4P-001]", "values": [{"measurement": "COX-2/mm^2", "setting": "melanoma biopsy samples; Week 4, ROI Non-Tumor, Day 1 2.07", "result": "1.22 /mm^2"}, {"measurement": "CD206/mm^2", "setting": "melanoma biopsy samples; Week 4, ROI Non-Tumor, Day 1 252.20", "result": "199.30 /mm^2"}, {"measurement": "CD3/mm^2", "setting": "melanoma biopsy samples; Week 4, ROI Non-Tumor, Day 1 400.31", "result": "494.97 /mm^2"}, {"measurement": "VISTA/mm^2", "setting": "melanoma biopsy samples; Week 4, ROI Non-Tumor, Day 1 410.11", "result": "144.72 /mm^2"}, {"measurement": "CD163/mm^2", "setting": "melanoma biopsy samples; Week 4, ROI Non-Tumor, Day 1 514.86", "result": "467.25 /mm^2"}, {"measurement": "B7H3/mm^2", "setting": "melanoma biopsy samples; Week 4, ROI Non-Tumor, Day 1 615.63", "result": "980.49 /mm^2"}, {"measurement": "Cells/mm^2", "setting": "melanoma biopsy samples; Week 4, ROI Non-Tumor, Day 1 2057.63", "result": "2217.73 /mm^2"}, {"measurement": "COX-2/mm^2", "setting": "melanoma biopsy samples; Week 4, ROI Tumor, Day 1 3.40", "result": "2.98 /mm^2"}, {"measurement": "CD3/mm^2", "setting": "melanoma biopsy samples; Week 4, ROI Tumor, Day 1 239.91", "result": "1050.68 /mm^2"}, {"measurement": "CD206/mm^2", "setting": "melanoma biopsy samples; Week 4, ROI Tumor, Day 1 264.79", "result": "161.25 /mm^2"}, {"measurement": "CD163/mm^2", "setting": "melanoma biopsy samples; Week 4, ROI Tumor, Day 1 426.51", "result": "661.21 /mm^2"}, {"measurement": "VISTA/mm^2", "setting": "melanoma biopsy samples; Week 4, ROI Tumor, Day 1 2640.08", "result": "852.86 /mm^2"}, {"measurement": "B7H3/mm^2", "setting": "melanoma biopsy samples; Week 4, ROI Tumor, Day 1 4826.36", "result": "3952.27 /mm^2"}, {"measurement": "Cells/mm^2", "setting": "melanoma biopsy samples; Week 4, ROI Tumor, Day 1 5758.23", "result": "5297.64 /mm^2"}, {"measurement": "COX-2/mm^2", "setting": "melanoma biopsy samples; Week 4, ROI Whole Tissue, Day 1 2.87", "result": "1.97 /mm^2"}, {"measurement": "CD206/mm^2", "setting": "melanoma biopsy samples; Week 4, ROI Whole Tissue, Day 1 259.38", "result": "182.26 /mm^2"}, {"measurement": "CD3/mm^2", "setting": "melanoma biopsy samples; Week 4, ROI Whole Tissue, Day 1 308.53", "result": "738.82 /mm^2"}, {"measurement": "CD163/mm^2", "setting": "melanoma biopsy samples; Week 4, ROI Whole Tissue, Day 1 464.86", "result": "552.27 /mm^2"}, {"measurement": "VISTA/mm^2", "setting": "melanoma biopsy samples; Week 4, ROI Whole Tissue, Day 1 1673.17", "result": "457.53 /mm^2"}, {"measurement": "B7H3/mm^2", "setting": "melanoma biopsy samples; Week 4, ROI Whole Tissue, Day 1 2998.14", "result": "2288.84 /mm^2"}, {"measurement": "Cells/mm^2", "setting": "melanoma biopsy samples; Week 4, ROI Whole Tissue, Day 1 4149.31", "result": "3572.93 /mm^2"}, {"measurement": "expression of VISTA", "setting": "melanoma biopsy samples; [2]", "result": "decreased expression"}, {"measurement": "numbers of CD3+ cells within tumor borders", "setting": "melanoma biopsy samples; [2]", "result": "increased numbers"}, {"measurement": "terminal half-life", "setting": "in vivo", "result": "approximately 14.5 hrs"}, {"measurement": "half-life", "setting": "in vivo; terminal half-life", "result": "12 to 24", "unit": "h"}, {"measurement": "CD8 expression", "setting": "[1]; patient #5, post-dosing vs pre-dosing", "result": "visibly increased"}, {"measurement": "CD8+ T cells density in tumor microenvironment", "setting": "[1]; patient #5, post-dosing, pre-dosing 1045", "result": 1370, "unit": "per square millimeter"}, {"measurement": "CD8 Avg. Density", "setting": "melanoma tumor interface; Week 4, Day 1 380.0449", "result": 1550.5403, "unit": "cells/mm^2"}, {"measurement": "CD8 Within Interface Area", "setting": "melanoma tumor interface; Week 4, Day 1 5233", "result": 7557}, {"measurement": "CD8 Count", "setting": "melanoma tumor interface; Week 4, Day 1 8924", "result": 25894}, {"measurement": "total density of CD8+ cells within the boundary area compared with baseline", "setting": "melanoma tumor interface; after 3 weeks of monotherapy, within 100 μM of tumor boundary", "result": "increased four-fold"}, {"measurement": "solubility", "setting": "Solubility of X4P-001; aqueous buffer, pH range 3.0 to 8.0 (freely soluble)", "result": "> 100", "unit": "mg/mL"}, {"measurement": "solubility in water", "setting": "Solubility of X4P-001; water", "result": "only slightly soluble"}]}
